The values below come from patent US20210347785A1, “PREPARATION AND APPLICATION OF AROMATIC COMPOUND HAVING IMMUNOREGULATORY FUNCTION” (SHANGHAI ENNOVABIO PHARMACEUTICALS CO., LTD., priority 2018, published 2021).

SMILES strings stand for the structures. pIC50: −log10 of the molar value.

The target of the assay is T1, PD-1/PD-L1 (Homo sapiens, UniProt Q9NZQ7).
T1 construct: purchased Cisbio 63ADK000CPDEC
T1 sequence (Q9NZQ7 19-238 limits assumed): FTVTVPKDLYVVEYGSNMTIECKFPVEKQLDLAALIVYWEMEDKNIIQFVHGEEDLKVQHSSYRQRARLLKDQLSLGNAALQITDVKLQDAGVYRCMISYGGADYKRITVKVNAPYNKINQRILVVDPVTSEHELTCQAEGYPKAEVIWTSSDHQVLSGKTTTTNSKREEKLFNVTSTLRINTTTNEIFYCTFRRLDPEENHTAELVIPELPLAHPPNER
Kind of assay: PD-1/PD-L1 homogeneous time-resolved fluorescence (HTRF) binding assay. As to conditions: 665 nm/620 nm ratio. The text has this: Test Example 1: Detect the Inhibitory Effect of the Compound to the Binding of PD-1/PD-L1 Protein
The PD-1/PD-L1 homogeneous time-resolved fluorescence method is used to detect the binding ability of the compound with PD-L1.
PD-1/PD-L1 binding assay kit (Cisbio, Cat #63ADK000CPDEC) was chosen, which contains two proteins Tag 1-PD-L1 and Tag 2-PD-1, and two antibodies Anti-Tag1-Eu^3+ and Anti-Tag2-XL 665. The principle of detection was: Anti-tag1-Eu^3+ was used as the donor of HTRF, and Anti-Tag2-XL 665 was used as the acceptor of HTRF. When Tag 1-PD-L1 interacts with Tag 2-PD-1, the added HTRF donor and the acceptor are close to each other. After the donor has received the excitation energy, part of the energy was transferred to the acceptor, thus generating 665 nm emission light. […] The inhibitory effect of the compound can be determined by comparing the ratio of 665 nm/620 nm. Tag 1-PD-L1 was diluted with Diluent buffer (cat #62DLBDDF) to a working concentration of 10 nM, Tag 2-PD-1 was diluted with Diluent buffer to a working concentration of 500 nM, Anti-Tag1-Eu^3+ was diluted with detection buffer (cat #62DB1FDG) at a ratio of 1:100, Anti-Tag2-XL 665 was diluted with detection buffer at a ratio of 1:20, and the compound to be detected was diluted with diluent buffer to a final concentration of 2×. Compound solution (2 μL) was added to each well of a 384-well plate, then Tag 1-PD-L1 (4 μL) and Tag 2-PD-1 (4 μL) were added successively. The mixture was incubated at room temperature for 15 minutes. Then Anti-Tag1-Eu^3+ (5 μL) and Anti-Tag2-XL 665 (5 μL) were added, and the mixture was incubated overnight at room temperature. BioTek Synergy™ Neo2 multifunctional microplate reader was used to detect so as to provide the 665 nm/620 nm ratio. PrismGraphd 5.02 was used to fit the IC50 curve.
For `Cc1c(Nc2csc3cc(CNCCO)cnc23)cccc1-c1ccccc1` [Compound 1, 2-(((3-((2-Methyl-[1,1′-biphenyl]-3-yl)amino)thieno[3,2-b]pyridin-6-yl)methyl)amino)ethane-1-ol], the negative-log IC50 (pIC50) was greater than 7.00.

Consider `O=C(O)CNCc1nc2c(Nc3cccc(-c4ccccc4)c3Cl)nccc2s1` [Compound 8, ((4-((2-Chloro-[1,1′-biphenyl]-3-yl)amino)thiazolo[4,5-c]pyridin-2-yl)methyl)glycine], for which the pIC50 was greater than 7.00.

Regarding `O[C@@H]1CCN(Cc2nc3c(Nc4cccc(-c5ccccc5)c4Cl)nccc3s2)C1` [Compound 6, (R)-1-((4-((2-Chloro-[1,1′-biphenyl]-3-yl)amino)thiazolo[4,5-c]pyridin-2-yl)methyl)pyrrolidin-3-ol], the pIC50 was 6.00 to 7.00.

Consider `Cc1c(-c2ccc(CNC[C@@H]3CCC(=O)N3)c(O)n2)cccc1-c1cccc(Nc2nccc3sc(CNCC(=O)O)nc23)c1Cl` [Compound 21], for which the negative logarithm of the IC50 (pIC50) is greater than 7.00.

`NC(=O)CNCc1nc2c(Nc3cccc(-c4ccccc4)c3Cl)nccc2s1` [Compound 3, 2-(((4-((2-chloro-[1,1′-biphenyl]-3-yl)amino)thiazolo[4,5-c]pyridin-2-yl)methyl)amino) acetamide]: the negative-log IC50 (pIC50) is greater than 7.00.

As for `COc1nc(-c2cccc(-c3cccc(Nc4nccc5sc(CN6CCC[C@@H]6C(=O)O)nc45)c3Cl)c2Cl)cc(C)c1CNC[C@@H]1CCC(=O)N1` [Compound 47], the pIC50 is greater than 7.00.

Consider `O[C@H]1CCN(Cc2nc3c(Nc4cccc(-c5ccccc5)c4Cl)nccc3s2)C1` [Compound 7, (S)-1-((4-((2-Chloro-[1,1′-biphenyl]-3-yl)amino)thiazolo[4,5-c]pyridin-2-yl)methyl)pyrrolidin-3-ol], for which the negative logarithm of the IC50 (pIC50) was 6.00 to 7.00.

In the case of `COc1nc(-c2cccc(-c3cccc(Nc4nccc5sc(CNCC(=O)O)nc45)c3Cl)c2Cl)ccc1CN1CC2(CCC(=O)N2)C1` [Compound 22], the pIC50 is greater than 7.00.

On to `COc1cc(-c2cccc(-c3cccc(Nc4nccc5sc(CN6CCC(C(=O)O)CC6)nc45)c3Cl)c2Cl)nc(C)c1CNC[C@@H]1CCC(=O)N1` [Compound 43], for which the negative logarithm of the IC50 (pIC50) was greater than 7.00.

Take `OCCNCc1nc2c(Nc3cccc(-c4cccc(OCCCCN5CCC(O)C5)c4)c3Cl)nccc2s1` (stereo not shown) [Compound 12, 1-(4-((2′-chloro-3′-((2-(((2-hydroxyethyl)amino)methyl)thiazolo[4,5-c]pyridin-4-yl)amino)-[1,1′-biphenyl]-3-yl)oxo)butyl)pyrrolidin-3-ol]: the pIC50 is greater than 7.00.

One may read the pIC50 as the IC50 on a negative log10 scale, so that one unit is a factor of ten.
